From the supplement of paper PMC10307832

Tests used:
Experiment in all cases: relative viability (nuclei count vs DMSO), 5 days (fraction); higher = more cells survive
[1] = compound: CC(=O)Nc1cccc(-n2c(=O)n(C3CC3)c(=O)c3c(Nc4ccc(I)cc4F)n(C)c(=O)c(C)c32)c1 [Trametinib] + O=C(CCCCCCC(=O)Nc1ccccc1)NO [Vorinostat] (partner 1 µM)
How it was run: (§1)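 Values are medians from duplicate plates. Each reflects relative viability, defined as the nuclei count of treated wells over that of vehicle wells. Lung cancer cell lines in 1536-well plates were pin-tool dosed one day after seeding with one drug alone or with a fixed anchor-drug dose plus five library-drug doses (not always all listed) in √10 steps, then fixed, stained and imaged at 4× after 5 days.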

[2] = compound: CN1C=C(C2=CC=CC=C21)/C=C\3/C4=C(C=CC=N4)NC3=O + CS(=O)(=O)CCNCc1ccc(-c2ccc3ncnc(Nc4ccc(OCc5cccc(F)c5)c(Cl)c4)c3c2)o1 [Lapatinib] (partner 2 µM)
How it was run: as §1

[3] = compound: CN1C=C(C2=CC=CC=C21)/C=C\3/C4=C(C=CC=N4)NC3=O + Cc1nc(Nc2ncc(C(=O)Nc3c(C)cccc3Cl)s2)cc(N2CCN(CCO)CC2)n1 [Dasatinib] (partner 0.075 µM)
How it was run: as §1

[4] = compound: CN1C=C(C2=CC=CC=C21)/C=C\3/C4=C(C=CC=N4)NC3=O + O=C(CCCCCCC(=O)Nc1ccccc1)NO [Vorinostat] (partner 1 µM)
How it was run: as §1

Cell Line | relative viability ([1]; first compound 0.0025 µM) | relative viability ([1]; first compound 0.007906 µM) | relative viability ([1]; first compound 0.025 µM) | relative viability ([1]; first compound 0.07906 µM) | relative viability ([1]; first compound 0.25 µM) | relative viability ([2]; first compound 0.02 µM) | relative viability ([2]; first compound 0.06325 µM) | relative viability ([2]; first compound 0.2 µM) | relative viability ([2]; first compound 0.6325 µM) | relative viability ([2]; first compound 2 µM) | relative viability ([3]; first compound 0.02 µM) | relative viability ([3]; first compound 0.06325 µM) | relative viability ([3]; first compound 0.2 µM) | relative viability ([3]; first compound 0.6325 µM) | relative viability ([3]; first compound 2 µM) | relative viability ([4]; first compound 0.02 µM) | relative viability ([4]; first compound 0.06325 µM) | relative viability ([4]; first compound 0.2 µM) | relative viability ([4]; first compound 0.6325 µM) | relative viability ([4]; first compound 2 µM)
HCC-366 | 0.354 | 0.291 | 0.357 | 0.356 | 0.106 | 0.816 | 0.976 | 0.952 | 1.15 | 1.08 | 0.641 | 0.455 | 0.44 | 0.593 | 0.468 | 0.239 | 0.32 | 0.28 | 0.226 | 0.174
HCC-827 | 0.903 | 0.876 | 0.71 | 0.677 | 0.502 | 0.21 | 0.185 |  | 0.159 | 0.179 | 0.296 | 0.354 |  | 0.28 | 0.427 | 0.721 | 0.87 |  | 0.703 | 0.714
HOP-62 | 0.648 | 0.467 | 0.277 | 0.301 | 0.106 | 1.28 | 1.21 | 0.688 | 0.882 | 1.06 | 0.683 | 0.709 | 0.592 | 0.599 | 0.648 | 0.565 | 0.543 |  | 0.576 | 0.547
IA-LM | 0.744 | 0.604 | 0.255 | 0.125 | 0.12 | 0.947 | 0.617 | 0.546 | 0.65 | 0.448 |  |  |  |  |  | 1.07 | 1.2 | 1.04 |  | 0.927
LC-2-ad | 0.648 | 0.665 | 0.663 | 0.547 | 0.472 | 0.834 | 0.935 | 0.89 | 1.05 | 1 | 0.572 | 0.482 | 0.45 | 0.597 | 0.515 | 0.67 | 0.661 | 0.666 | 0.706 | 0.669
LCLC-97TM1 | 0.722 | 0.701 | 0.435 | 0.225 | 0.0816 | 0.696 |  |  | 0.882 | 0.948 | 0.529 | 0.76 | 0.876 | 0.968 | 0.882 |  | 0.621 | 0.467 | 0.766 | 0.77
LCLC-103H | 0.808 | 0.636 | 0.699 | 0.631 | 0.588 |  |  |  |  |  | 0.516 | 0.355 | 0.481 | 0.417 | 0.478 | 0.819 | 0.755 | 0.749 | 0.853 | 0.766
LK-2 | 0.346 | 0.288 | 0.164 | 0.344 | 0.326 |  | 0.568 |  | 0.756 | 1.03 |  |  |  | 0.266 | 0.256 |  | 0.263 | 0.199 | 0.231 | 0.315
LOU-NH91 | 0.893 | 0.802 | 0.766 | 0.809 | 0.411 | 0.578 | 0.577 | 0.59 | 0.601 | 0.668 | 0.58 | 0.501 | 0.464 | 0.516 | 0.466 | 0.816 | 0.851 | 0.789 | 0.809 | 0.848
LU99A | 0.546 | 0.503 | 0.291 | 0.397 | 0.254 | 0.986 | 0.805 | 0.9 | 0.964 | 0.85 | 0.67 | 0.457 | 0.437 | 0.669 | 0.612 | 0.475 | 0.401 | 0.508 | 0.492 | 0.477
LXF-289 | 0.711 | 0.587 | 0.538 | 0.529 | 0.55 | 0.889 | 0.882 | 0.905 | 0.911 | 0.884 | 0.203 | 0.197 | 0.184 | 0.2 | 0.202 | 0.693 | 0.828 | 0.689 | 0.817 | 0.801
NCI-H23 | 0.501 | 0.537 | 0.277 | 0.323 | 0.126 | 0.926 | 0.952 |  | 0.892 | 0.991 | 0.769 | 0.741 | 0.518 | 0.698 | 0.8 | 0.579 | 0.518 | 0.537 | 0.612 | 0.474
NCI-H441 | 0.819 | 0.797 | 0.722 | 0.749 | 0.608 |  |  |  |  |  | 0.541 | 0.638 | 0.548 | 0.538 | 0.677 | 0.807 | 0.752 | 0.833 | 0.694 | 0.793
NCI-H522 | 0.823 | 0.798 | 0.836 | 0.763 | 0.671 |  |  |  |  |  | 0.896 | 0.803 | 0.844 | 0.784 | 0.874 | 0.734 | 0.893 | 0.84 | 0.899 | 0.953
NCI-H1299 |  |  |  |  |  | 0.979 | 0.974 | 0.989 | 1.03 | 0.979 |  |  |  |  |  |  |  |  |  | 
NCI-H1563 |  |  |  |  |  | 1.2 | 0.977 | 0.912 | 0.926 | 1.02 | 0.472 | 0.437 | 0.444 | 0.488 | 0.414 |  |  |  |  | 
NCI-H1623 |  |  |  |  |  |  |  |  |  |  | 0.469 | 0.625 | 0.49 | 0.457 | 0.505 |  |  |  |  | 
NCI-H1648 | 0.422 | 0.479 | 0.488 | 0.3 | 0.376 |  |  |  |  |  |  |  |  |  |  | 0.557 | 0.391 | 0.425 | 0.327 | 0.64
NCI-H1703 |  |  |  |  |  | 0.962 | 0.941 | 1.11 | 1.25 | 1.29 |  |  |  |  |  |  |  |  |  | 
NCI-H1792 |  |  |  |  |  | 0.588 | 0.96 | 0.8 |  | 0.672 | 0.816 | 0.93 | 0.74 |  | 0.66 |  |  |  |  | 
NCI-H2342 | 0.727 | 0.793 | 0.488 | 0.685 | 0.68 |  |  |  |  |  | 0.316 | 0.313 | 0.284 | 0.304 | 0.318 | 0.661 | 0.787 | 0.788 | 0.613 | 0.684
SW 900 | 0.44 | 0.545 | 0.439 | 0.456 | 0.138 |  |  |  |  |  | 0.495 | 0.585 |  | 0.537 | 0.481 | 0.588 |  |  | 0.352 | 0.463
